Counter-ions that a name gives are not always drawn.

Experimental findings from US8188078B2 (Sanofi-Aventis, priority 2007, dated 2012) are described below.

The target of one assay is T1, c-MET (Homo sapiens, UniProt P08581).
T1 construct: The recombinant DNA His-Tev-MET (956-1390) in pFastBac(Invitrogen); His (N, cleaved yes); Tev (TEV protease site) (N, cleaved yes); made in house; host or cells: SF21 insect cells (baculovirus, pFastBac)
Briefly: Test A: HTRF Met test in 96-well format. The assay is classed as biochemical. The gist of the method:
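Percent inhibition was calculated from the HTRF 665/620 ratio, using Eu-cryptate anti-phosphotyrosine PT66 plus streptavidin-XL added with EDTA and read after 2 h. The reaction ran 10 min at room temperature: 5 nM tag-cleaved MET (956–1390), 10 µM ATP, 1 µg/ml poly-GAT, and compound from 0.17 nM to 10 µM in 3% DMSO.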

The subject of the next assay is MKN45 cells. Briefly: Test D: cellular proliferation by 14C-thymidine pulse, MKN45 cells. The conditions noted are these: cell line not stated (HCT116 or MKN45). The assay is classed as cell-based. An outline of the steps: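 MKN45 cells (7500/well, RPMI + 10% foetal calf serum) treated with 10 concentrations, 10000 to 0.3 nM in 3-fold steps, duplicate. 14C-thymidine (0.1 μCi/well) added at 72 h; incorporation counted after 24 h pulse, 96 h total treatment.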

The mark [1] stands for this setting: Homo sapiens, MKN-45, cellular proliferation by 14C-thymidine pulse.
The mark [2] stands for this setting: cellular proliferation by 14C-thymidine pulse.

T1 sequence (P08581 956-1390): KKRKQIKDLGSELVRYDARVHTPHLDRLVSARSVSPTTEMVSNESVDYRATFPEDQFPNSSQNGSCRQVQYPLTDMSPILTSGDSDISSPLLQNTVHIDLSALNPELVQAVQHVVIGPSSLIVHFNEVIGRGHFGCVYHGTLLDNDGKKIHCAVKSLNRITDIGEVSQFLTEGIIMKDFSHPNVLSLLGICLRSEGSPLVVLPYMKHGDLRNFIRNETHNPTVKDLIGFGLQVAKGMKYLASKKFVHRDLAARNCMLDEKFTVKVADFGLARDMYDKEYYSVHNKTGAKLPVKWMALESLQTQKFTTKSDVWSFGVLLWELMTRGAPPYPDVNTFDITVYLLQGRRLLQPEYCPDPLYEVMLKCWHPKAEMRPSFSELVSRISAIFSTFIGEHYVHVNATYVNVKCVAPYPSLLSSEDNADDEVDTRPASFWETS

As to `CC(Oc1ccc2nc(NC(=O)NCCCn3cccc3)sc2c1)c1c(Cl)ccc(F)c1Cl` (stereo not shown) [Example 40, 1-{6-[1-(2,6-dichloro-3-fluorophenyl)ethoxy]-1,3-benzothiazol-2-yl}-3-[3-(1H-pyrrol-1-yl)propyl]urea], the values for the IC50 against c-MET and with MKN45 cells (setting [1]) were under 100 nM and over 10000 nM, respectively.

Consider `CC(Oc1ccc2nc(NC(=O)NCCN3CCN(C)CC3)sc2c1)c1c(Cl)ccc(F)c1Cl` (stereo not shown) [Example 55, 1-{6-[1-(2,6-dichloro-3-fluorophenyl)ethoxy]-1,3-benzothiazol-2-yl}-3-[2-(4-methylpiperazin-1-yl)ethyl]urea], for which the concentration for half-maximal inhibition (IC50) on c-MET is under 100 nM; in the assay with MKN45 cells (setting [1]), under 500 nM.

Take `CC(Oc1ccc2nc(NC(=O)NCCCN3CCCCCC3)sc2c1)c1c(Cl)ccc(F)c1Cl` (stereo not shown) [Example 48, 1-(3-azepan-1-ylpropyl)-3-{6-[1-(2,6-dichloro-3-fluorophenyl)ethoxy]-1,3-benzothiazol-2-yl}urea]: the IC50 against c-MET is under 100 nM; in the assay with MKN45 cells (setting [1]), over 10000 nM.

As for `CC(Oc1ccc2nc(NC(=O)NCCN3CCOCC3)sc2c1)c1c(F)cccc1F` (stereo not shown) [Example 18, 1-{6-[1-(2,6-difluorophenyl)ethoxy]-1,3-benzothiazol-2-yl}-3-(2-morpholin-4-ylethyl)urea], the IC50 is under 100 nM at c-MET and 500 to 10000 nM with MKN45 cells (setting [1]).

For the compound `CC(Oc1ccc2nc(NC(=O)NCc3ccncc3)sc2c1)c1c(Cl)ccc(F)c1Cl` (stereo not shown) [Example 57, 1-{6-[1-(2,6-dichloro-3-fluorophenyl)ethoxy]-1,3-benzothiazol-2-yl}-3-(pyridin-4-ylmethyl)urea], the 50% inhibitory concentration (IC50) was under 100 nM on c-MET and over 10000 nM with MKN45 cells (setting [1]).

Take `C[C@@H](Oc1cc2sc(NC(=O)NCCN3CCOCC3)nc2cc1F)c1c(Cl)ccc(F)c1Cl` (single isomer, unassigned) [Example 33, 1-{6-[(1R)-(2,6-dichloro-3-fluorophenyl)ethoxy]-5-fluoro-1,3-benzothiazol-2-yl}-3-(2-morpholin-4-ylethyl)urea or 1-{6-[(1S)-(2,6-dichloro-3-fluorophenyl)ethoxy]-5-fluoro-1,3-benzothiazol-2-yl}-3-(2-morpholin-4-ylethyl)urea]: the half-inhibitory concentration (IC50) against c-MET was under 100 nM; with MKN45 cells (setting [2]), 500 to 10000 nM.

In the case of `CC(Oc1ccc2nc(NC(=O)NCCCN3CCN(Cc4ccccc4)CC3)sc2c1)c1c(Cl)ccc(F)c1Cl` (stereo not shown) [Example 49, 1-[3-(4-benzylpiperazin-1-yl)propyl]-3-{6-[1-(2,6-dichloro-3-fluorophenyl)ethoxy]-1,3-benzothiazol-2-yl}urea], the IC50 against c-MET was under 100 nM; in the assay on MKN45 cells (setting [1]), 500 to 10000 nM.

As for `CC(Oc1ccc2nc(NC(=O)NCCCN3CCCCC3)sc2c1)c1c(Cl)ccc(F)c1Cl` (stereo not shown) [Example 44, 1-{6-[1-(2,6-dichloro-3-fluorophenyl)ethoxy]-1,3-benzothiazol-2-yl}-3-(3-piperidin-1-ylpropyl)urea], the IC50 was under 100 nM at c-MET and under 500 nM in the assay with MKN45 cells (setting [1]).

Turning to `CC(Oc1ccc2nc(NC(=O)NCCN3CCCCCC3)sc2c1)c1c(Cl)ccc(F)c1Cl` (stereo not shown) [Example 54, 1-(2-azepan-1-ylethyl)-3-{6-[1-(2,6-dichloro-3-fluorophenyl)ethoxy]-1,3-benzothiazol-2-yl}urea], the IC50 is under 100 nM on c-MET and 500 to 10000 nM in the assay with MKN45 cells (setting [1]).

On to `CC(Oc1cc2sc(NC(=O)NCCN3CCOCC3)nc2cc1F)c1c(F)ccc(Cl)c1Cl` (single isomer, unassigned) [Example 112, 1-{6-[(1R*)-1-(2,3-dichloro-6-fluorophenyl)ethoxy]-5-fluoro-1,3-benzothiazol-2-yl}-3-[2-(morpholin-4-yl)ethyl]urea], for which the values for the half-maximal inhibitory concentration (IC50) against c-MET and in the assay with MKN45 cells (setting [1]) were under 100 nM and under 500 nM, respectively.

In the case of `CC(Oc1ccc2nc(NC(=O)NCc3cccnc3)sc2c1)c1c(Cl)ccc(F)c1Cl` (stereo not shown) [Example 59, 1-{6-[1-(2,6-dichloro-3-fluorophenyl)ethoxy]-1,3-benzothiazol-2-yl}-3-(pyridin-3-ylmethyl)urea], the concentration for half-maximal inhibition (IC50) at c-MET was under 100 nM; in the assay with MKN45 cells (setting [1]), 500 to 10000 nM.

`CC(Oc1ccc2nc(NC(=O)NCCCN3CCN(Cc4c(F)cccc4Cl)CC3)sc2c1)c1c(Cl)ccc(F)c1Cl` (stereo not shown) [Example 46, 1-{3-[4-(2-chloro-6-fluorobenzyl)piperazin-1-yl]propyl}-3-{6-[1-(2,6-dichloro-3-fluorophenyl)ethoxy]-1,3-benzothiazol-2-yl}urea]: the IC50 against c-MET was under 100 nM; with MKN45 cells (setting [1]) it was over 10000 nM.

As for `CC(Oc1ccc2nc(NC(=O)NCCN3CCOCC3)sc2c1)c1ccccc1C(F)(F)F` (stereo not shown) [Example 19, 1-(2-morpholin-4-ylethyl)-3-(6-{1-[2-(trifluoromethyl)phenyl]ethoxy}-1,3-benzothiazol-2-yl)urea], the IC50 was under 100 nM against c-MET and over 10000 nM in the assay on MKN45 cells (setting [1]).

`CC(Oc1ccc2nc(NC(=O)NCCN3CCCCC3)sc2c1)c1c(Cl)ccc(F)c1Cl` (stereo not shown) [Example 50, 1-{6-[1-(2,6-dichloro-3-fluorophenyl)ethoxy]-1,3-benzothiazol-2-yl}-3-(2-piperidin-1-ylethyl)urea]: the IC50 is under 100 nM against c-MET and 500 to 10000 nM in the assay on MKN45 cells (setting [1]).

For the compound `CC(Oc1ccc2nc(NC(=O)NCCN3CCOCC3)[nH]c2c1)c1c(Cl)ccc(F)c1Cl` (stereo not shown) [Example 4, 4-{2-[({6-[1-(2,6-Dichloro-3-fluorophenyl)ethoxy]-1H-benzimidazol-2-yl}carbamoyl)amino]ethyl}morpholin-4-ium trifluoroacetate], the IC50 on c-MET was under 100 nM; in the assay with MKN45 cells (setting [1]), 500 to 10000 nM.

Regarding `CC(Oc1ccc2nc(NC(=O)OCCN3CCOCC3)sc2c1)c1c(Cl)ccc(F)c1Cl` (stereo not shown) [Example 74], the figures for the IC50 on c-MET and in the assay on MKN45 cells (setting [1]) were under 100 nM and 500 to 10000 nM, respectively.

Regarding `CC(Oc1ccc2nc(NC(=O)NCCN3CCOCC3)sc2c1)c1c(Cl)ccc(F)c1Cl` (single isomer, unassigned) [Example 25, 1-{6-[(1R*)-(2,6-dichloro-3-fluorophenyl)ethoxy]-1,3-benzothiazol-2-yl}-3-(2-morpholin-4-ylethyl)urea], the results for the half-inhibitory concentration (IC50) against c-MET and with MKN45 cells (setting [2]) were under 100 nM and under 500 nM, respectively.

With `CC(Oc1ccc2nc(NC(=O)NCCN3C(C)CCCC3C)sc2c1)c1c(Cl)ccc(F)c1Cl` (stereo not shown) [Example 56, 1-{6-[1-(2,6-dichloro-3-fluorophenyl)ethoxy]-1,3-benzothiazol-2-yl}-3-[2-(2,6-dimethylpiperidin-1-yl)ethyl]urea], the IC50 was under 100 nM against c-MET and under 500 nM with MKN45 cells (setting [1]).

Turning to `CC(Oc1ccc2nc(NC(=O)NCCN3CCCC3)sc2c1)c1c(Cl)ccc(F)c1Cl` (stereo not shown) [Example 51, 1-{6-[1-(2,6-dichloro-3-fluorophenyl)ethoxy]-1,3-benzothiazol-2-yl}-3-(2-pyrrolidin-1-ylethyl)urea], the 50% inhibitory concentration (IC50) was under 100 nM against c-MET and 500 to 10000 nM in the assay with MKN45 cells (setting [1]).

Regarding `CC(Oc1cc2sc(NC(=O)NCCN3CCN(C)CC3)nc2cc1F)c1c(F)ccc(Cl)c1Cl` (single isomer, unassigned) [Example 116, 1-{6-[(1R*)-1-(2,3-dichloro-6-fluorophenyl)ethoxy]-5-fluoro-1,3-benzothiazol-2-yl}-3-[2-(4-methylpiperazin-1-yl)ethyl]urea], the figures for the IC50 against c-MET and with MKN45 cells (setting [1]) were under 100 nM and under 500 nM, respectively.

Take `CC(Oc1cc2sc(NC(=O)NCCN3CCN(C)CC3)nc2cc1F)c1c(F)ccc(Cl)c1Cl` (single isomer, unassigned) [Example 117, 1-{6-[(1S*)-1-(2,3-dichloro-6-fluorophenyl)ethoxy]-5-fluoro-1,3-benzothiazol-2-yl}-3-[2-(4-methylpiperazin-1-yl)ethyl]urea]: the half-maximal inhibitory concentration (IC50) at c-MET is under 100 nM; with MKN45 cells (setting [2]), 500 to 10000 nM.

`CC(Oc1ccc2nc(NC(=O)NCCCN3CCCC3=O)sc2c1)c1c(Cl)ccc(F)c1Cl` (stereo not shown) [Example 45, 1-{6-[1-(2,6-dichloro-3-fluorophenyl)ethoxy]-1,3-benzothiazol-2-yl}-3-[3-(2-oxopyrrolidin-1-yl)propyl]urea]: the concentration for half-maximal inhibition (IC50) against c-MET is under 100 nM; in the assay on MKN45 cells (setting [1]), 500 to 10000 nM.

As for `CC(Oc1cc2sc(NC(=O)NCCN3CCCC3)nc2cc1F)c1c(F)ccc(Cl)c1Cl` (single isomer, unassigned) [Example 119, 1-{6-[(1R*)-1-(2,3-dichloro-6-fluorophenyl)ethoxy]-5-fluoro-1,3-benzothiazol-2-yl}-3-[2-(pyrrolidin-1-yl)ethyl]urea], the concentration for half-maximal inhibition (IC50) was under 100 nM on c-MET and under 500 nM in the assay with MKN45 cells (setting [1]).

As for `CC(Oc1cc2sc(NC(=O)NCCN3CCNC(=O)C3)nc2cc1F)c1c(Cl)ccc(F)c1Cl` (stereo not shown) [Example 130, 1-{6-[1-(2,6-dichloro-3-fluorophenyl)ethoxy]-5-fluoro-1,3-benzothiazol-2-yl}-3-[2-(3-oxopiperazin-1-yl)ethyl]urea], the IC50 is under 100 nM against c-MET and 500 to 10000 nM in the assay with MKN45 cells (setting [1]).

Turning to `CCN1CCN(CCNC(=O)Nc2nc3cc(F)c(OC(C)c4c(Cl)ccc(F)c4Cl)cc3s2)CC1` (single isomer, unassigned) [Example 102, 1-{6-[(1S*)-1-(2,6-dichloro-3-fluorophenyl)ethoxy]-5-fluoro-1,3-benzothiazol-2-yl}-3-[2-(4-ethylpiperazin-1-yl)ethyl]urea], the 50% inhibitory concentration (IC50) was under 100 nM against c-MET and 500 to 10000 nM in the assay with MKN45 cells (setting [2]).

As to “{6-[1-(2,6-dichloro-3-fluorophenyl)ethoxy]-5-fluoro-1,3-benzothiazol-2-yl}2-(pyrrolidin-1-yl)ethyl carbamate [Example 73]”, the IC50 is under 100 nM on c-MET and 500 to 10000 nM in the assay with MKN45 cells (setting [2]).
